In patent publication US9308253B2, “Cancer immunotherapy” (The Johns Hopkins University, priority 2011, dated 2016):

Tests used:
B16 melanoma = experiment: Tumor treatment assay, palpable B16 model; type: in vivo, C57BL/6 mice; settings: palpable B16, single subcutaneous treatment in contralateral limb
Experimental: IDC-1005 was incubated with irradiated GVAX cells at 4 deg C. for 0.5-2, hours prior to inoculation. GVAX formulated with IDC-1005 is labeled as TEGVAX.
Tumor treatment assay: C57BL/6 mice were injected with 1-5×10^4 B16 in the footpads. Once palpable tumor developed (5-10 days), 100 μl of 10^6 B16 GVAX formulated with or without IDC-1005 were injected subcutaneously into the contralateral limb. The control groups were injected with vehicle. For all these experiments, 10 mice were used per group. […] For all the vaccines, GM-CSF was titered to ensure that GM-CSF expression level ranged from 50-500 ng/10^6 Cells/24 hours. Tumor was measured daily.

TLR4 = settings: cited from earlier work
[1] = human, in vivo; cited from earlier work

Molecule | tumor growth rate / in vivo anti-tumor response (B16 melanoma) | TH1 type cytokines on activation of dendritic cells (TLR4; murine and human dendritic cells, in vivo and in vitro, versus MPL) | TLR4 agonist strength (TLR4; versus monophosphoryl lipid A) | safety / toxicity in patients [1]
CCCCCCCCCCCCCC(=O)O[C@H](CCCCCCCCCCC)CC(=O)O[C@@H]1[C@@H](NC(=O)C[C@H](CCCCCCCCCCC)OC(=O)CCCCCCCCCCCCC)[C@H](OC[C@H]2O[C@H](O)[C@H](NC(=O)C[C@H](O)CCCCCCCCCCC)[C@@H](OC(=O)C[C@H](O)CCCCCCCCCCC)[C@@H]2O)O[C@H](CO)[C@H]1OP(=O)(O)O [GLA, glucopyranosyl lipid A] | no in vivo anti-tumor effects | more potent in terms of increasing multiple TH1 type cytokines | stronger TLR4 agonist than the monophosphyl lipid A | 
CCOCc1nc2c(N)nc3ccccc3c2n1CC(C)(C)O [R848, resiquimod] |  |  |  | passed phase 1 trials for safety
ipilimumab: anti-CTLA-4 antibody |  |  |  | grade 3-4 toxicity
